Assay results: ChEMBL document CHEMBL4024756, “Identification of 4-Phenoxyquinoline Based Inhibitors for L1196M Mutant of Anaplastic Lymphoma Kinase by Structure-Based Design” (J Med Chem, 2017)
Active and inactive are the calls of the source. No cut-off for these calls is given here.

Test system: ALK tyrosine kinase receptor (Homo sapiens), Q9UM73 [L1196M]
Sequence (Q9UM73 whole entry L1196M, looked up): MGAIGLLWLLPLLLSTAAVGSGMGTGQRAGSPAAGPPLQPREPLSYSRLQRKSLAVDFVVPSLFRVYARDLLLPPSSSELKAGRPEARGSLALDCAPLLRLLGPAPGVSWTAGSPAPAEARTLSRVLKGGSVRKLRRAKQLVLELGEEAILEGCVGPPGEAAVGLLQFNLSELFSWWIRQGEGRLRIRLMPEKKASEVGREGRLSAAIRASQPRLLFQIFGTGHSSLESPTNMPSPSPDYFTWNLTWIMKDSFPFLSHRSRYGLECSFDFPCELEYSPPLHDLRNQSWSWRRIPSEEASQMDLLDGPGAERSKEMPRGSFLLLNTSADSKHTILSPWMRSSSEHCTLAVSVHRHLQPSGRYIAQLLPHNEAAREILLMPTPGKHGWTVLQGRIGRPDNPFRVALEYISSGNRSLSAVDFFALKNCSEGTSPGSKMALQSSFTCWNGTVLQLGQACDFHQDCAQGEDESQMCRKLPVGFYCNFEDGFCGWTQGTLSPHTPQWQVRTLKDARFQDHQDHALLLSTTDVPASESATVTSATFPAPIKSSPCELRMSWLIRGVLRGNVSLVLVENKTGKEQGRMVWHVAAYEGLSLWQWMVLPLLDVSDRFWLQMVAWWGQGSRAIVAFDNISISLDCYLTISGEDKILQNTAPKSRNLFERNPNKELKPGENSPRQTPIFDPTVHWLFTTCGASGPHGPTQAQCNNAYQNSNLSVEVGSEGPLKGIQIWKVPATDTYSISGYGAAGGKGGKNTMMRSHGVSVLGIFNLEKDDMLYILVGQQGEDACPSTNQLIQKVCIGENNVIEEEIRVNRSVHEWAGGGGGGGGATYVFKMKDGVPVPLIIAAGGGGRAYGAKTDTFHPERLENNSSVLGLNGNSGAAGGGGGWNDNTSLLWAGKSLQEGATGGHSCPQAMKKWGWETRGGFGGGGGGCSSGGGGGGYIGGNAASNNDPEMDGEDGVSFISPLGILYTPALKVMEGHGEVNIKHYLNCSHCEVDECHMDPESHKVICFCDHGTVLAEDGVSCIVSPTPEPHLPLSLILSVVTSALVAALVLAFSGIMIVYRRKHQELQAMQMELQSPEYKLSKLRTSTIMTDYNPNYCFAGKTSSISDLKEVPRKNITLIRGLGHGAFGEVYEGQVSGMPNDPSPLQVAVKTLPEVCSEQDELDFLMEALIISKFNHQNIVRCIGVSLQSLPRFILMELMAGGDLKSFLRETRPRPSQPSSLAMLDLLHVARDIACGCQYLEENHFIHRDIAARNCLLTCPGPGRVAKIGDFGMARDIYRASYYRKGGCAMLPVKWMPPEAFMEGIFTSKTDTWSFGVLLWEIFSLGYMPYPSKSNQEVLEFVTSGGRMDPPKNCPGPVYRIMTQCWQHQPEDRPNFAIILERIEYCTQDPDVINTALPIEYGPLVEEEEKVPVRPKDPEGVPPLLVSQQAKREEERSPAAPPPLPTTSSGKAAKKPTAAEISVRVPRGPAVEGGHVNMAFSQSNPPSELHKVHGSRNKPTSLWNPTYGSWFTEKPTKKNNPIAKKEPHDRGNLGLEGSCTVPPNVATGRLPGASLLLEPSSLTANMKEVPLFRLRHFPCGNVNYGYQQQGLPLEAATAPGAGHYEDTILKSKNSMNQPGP

## Cc1ccc(Oc2ccnc3cc(-c4cnn(C5CCNCC5)c4)ccc23)cc1
  TDI: inactive
